Source: patent US20250136617A1 (The Regents of the University of Colorado, A Body Corporate, priority 2022, published 2025)
Entries after “also recorded” stand apart in the source; their conditions may differ.

Columns and labels:
miR-15b = experiment: qPCR of miR-15b expression in human dermal fibroblasts; assay type: cell-based; settings: 24 hours, 0.1, 1 and 10 uM
Description: (§1) An additional secondary screen was performed to further validate activity of UCUF-728 as a selective CXCR4 receptor modulator. Human diabetic and non-diabetic fibroblasts were cultured with increasing concentrations of the compound. The cells were incubated for 24 hours and then total cellular RNA was isolated to examine the ability of the compound to correct the abnormal expression of miR15b, and miR29a. It has been shown that human diabetic skin has increased miR-15b expression at baseline compared to non-diabetic skin (Xu et al. “The role of microRNA-15b in the impaired angiogenesis in diabetic wounds.” Wound Repair Regen 2014; 22(5):671-7).
(§2) Diabetic and non-diabetic fibroblasts were cultured with increasing concentrations of a UCUF-965 compound. The cells were incubated for 24 hours and then total cellular RNA was isolated to examine the ability of the compound to correct the abnormal expression of miR15b, and miR29a. Angiogenesis is regulated by hypoxia and the production of growth factors such as Hypoxia-inducible Factor 1-alpha (HIF-1a) and Vascular Endothelial Growth Factor (VEGF). […] MicroRNA-15b (miR-15b) has been described as a key negative modulator of angiogenesis. Under hypoxia, miR-15b is repressed, resulting in an increased level of VEGF. Over-expression of miR-15b also markedly attenuates hypoxia induced vessel tube formation and cell migration. […]

miR-29a = experiment: qPCR of miR-29a expression in human dermal fibroblasts; assay type: cell-based; settings: 24 hours, 0.1, 1 and 10 uM
Description: as §1, §2

SMILES | miR-15b expression (miR-15b; listed as UCUF-728) | miR-29a expression (miR-29a; listed as UCUF-728) | miR-15b expression (miR-15b; listed as UCUF-965) | miR-29a expression (miR-29a; listed as UCUF-965)
COc1ccc(OC)c(NS(=O)(=O)c2ccc(-c3cnc(C4CC4)o3)cc2)c1 [Oxazole Entry 19, 4-(2-Cyclopropyloxazol-5-yl)-N-(2,5-dimethoxyphenyl)benzenesulfonamide] | decreased expression of miR-15b; also recorded: potent suppression of miR-15b expression | significant decrease in miR-29a expression level; also recorded: reduced miR-29a expression | – | –
CCOc1ccccc1-c1nnc2n1N=C(c1ccc(N3CCCC3)cc1)CS2 [Thiadiazine Entry 23, 3-(2-ethoxyphenyl)-6-(4-(pyrrolidin-1-yl)phenyl)-7H-[1,2,4]triazolo[3,4-b][1,3,4]thiadiazine] | – | – | decreased expression of miR-15b | significant decrease in miR-29a; also recorded: decreased
